# Earlier results as cited in patent US7666823B2, “Lens care solutions” (Novartis AG, priority 2005, dated 2010).
# Conditions: dissociation constant of the dibasic compound, aqueous
smiles,measurement,value
"OCC(CO)(CO)NCCCNC(CO)(CO)CO [bis-TRIS-propane, 1,3-bis(tris[hydroxymethyl]methylamino)propane]",pKa1,6.8
same,pKa2,9.5
